According to patent US7691838B2, “Method for treating diseases using HSP90-inhibiting agents in combination with antimitotics” (Kosan Biosciences Incorporated, priority 2003, dated 2010):
Where two headings read alike, the source gives them in different places.

Legend:
[1] = system: DLD-1 cells (human colorectal cancer cells); assay: MTS cell viability drug combination assay, combination index, DLD-1; format: cell-based; conditions: CI<1 synergism
Procedure: (§1) Human colon adenocarcinoma cell line, DLD-1, and human breast adenocarcinoma cell line, SKBr-3, were obtained from American Type Culture Collection (manassas, Va.). DLD-1 cells were maintained in RPMI 1640 medium supplemented with 10% fetal bovine serum, and SKBr-3 cells were cultured in McCoy's 5a medium supplemented with 10% fetal bovine serum. 17-DMAG and 17-AAG were obtained using published procedures. Other cytotoxic agents were purchased commercially from suppliers such as Sigma Chemical Co. (St. Louis, Mo.) and Sequoia Research Products (Oxford, UK).
(§2) Cells were seeded in duplicate in 96-well microtiter plates at a density of 5,000 cells per well and allowed to attach overnight. Cells were treated with 17-AAG or 17-DMAG and the corresponding antimitotic at varying concentrations, ranging from 0.5 picomolar (“pM”) to 50 micromolar (“μM”), for 3 days. Cell viability was determined using the MTS assay (Promega). For the drug combination assay, cells were seeded in duplicate in 96-well plates (5,000 cells/well). […] Based on the IC50 values of each individual drug, combined drug treatment was designed at constant ratios of two drugs, i.e., equivalent to the ratio of their IC50. Two treatment schedules were used: In one schedule, the cells were exposed to 24 hours of 17-AAG or 17-DMAG. The drug was then added to the cells and incubated for 48 hours. In another schedule, cells were exposed to the drug alone for 24 hours followed by addition of 17-AAG or 17-DMAG for 48 hours. Cell viability was determined by the MTS assay.
(§3) Synergism, additivity or antagonism was determined by median effect analysis using the combination index (CI) calculated using Calcusyn (Biosoft, Cambridge, UK). The combination index is defined as follows: CI=[D]1/[Dx]1+[D]2/[Dx]2
(§4) The quantities [D]1 and [D]2 represent the concentrations of the first and second drug, respectively, that in combination provide a response of x % in the assay. The quantities [Dx]1 and [Dx]2 represent the concentrations of the first and second drug, respectively, that when used alone provide a response of x % in the assay. Values of CI<1, CI=1, and CI>1 indicated drug-drug synergism, additivity, and antagonism respectively (Chou and Talalay 1984). The “enhancing” effect of two drugs can also be determined.
“Pre-administration” refers to the administration of 17-AAG to the cells before the administration of antimitotic; “post-administration” refers to the administration of 17-AAG to the cells after the administration of antimitotic.

[2] = system: SKBr-3 cells (human breast cancer cells); assay: MTS cell viability drug combination assay, combination index, SKBr-3; format: cell-based; conditions: CI<1 synergism
Procedure: as §1, §2, §3, §4

breast cancer cells = conditions: cited from earlier work
[3] = on administration; background statement; cited from earlier work
[4] = clinical trials, cited from earlier work
[5] = system: ErbB2-expressing cancer cells; conditions: ErbB2-expressing cancer cells in vitro; Citri et al. 2002; cited from earlier work
[6] = 17-AAG Post-Administration (antimitotic 24 h, then 17-AAG 48 h)
[7] = 17-AAG Pre-Administration (17-AAG 24 h, then antimitotic 48 h)

Row | SMILES | CI value (combination index) of antimitotic with 17-AAG [1, 6] | CI value (combination index) of antimitotic with 17-AAG [1, 7] | CI value (combination index) of antimitotic with 17-AAG [2, 6] | CI value (combination index) of antimitotic with 17-AAG [2, 7] | further results
1 | C/C1=C/C[C@@H](/C(C)=C/c2csc(C)n2)OC(=O)C[C@H](O)C(C)(C)C(=O)[C@H](C)[C@@H](O)[C@@H](C)CCC1 [Epothilone D, epothilone D] | 0.61 ± 0.12 | 0.84 ± 0.06 | 0.58 ± 0.009 | 0.72 ± 0.07 | 
2 | CC(=O)O[C@H]1C(=O)[C@@]2(C)[C@H]([C@H](OC(=O)c3ccccc3)[C@]3(O)C[C@H](OC(=O)[C@H](O)[C@@H](NC(=O)c4ccccc4)c4ccccc4)C(C)=C1C3(C)C)[C@]1(OC(C)=O)CO[C@@H]1C[C@@H]2O [paclitaxel] |  |  |  |  | apoptosis, combination with 17-AAG (breast cancer cells; coincident treatment with paclitaxel and 17-AAG, retinoblastoma protein-producing cells): synergistic apoptosis; apoptosis, combination with 17-AAG (breast cancer cells; paclitaxel followed by 17-AAG 4 hours later): synergistic effect similar to coincident treatment; apoptosis, combination with 17-AAG (breast cancer cells; pretreatment with 17-AAG followed by paclitaxel): abrogation of apoptosis
3 | CC(=O)O[C@@]12CO[C@@H]1C[C@H](O)[C@@]1(C)C(=O)[C@H](O)C3=C(C)[C@@H](OC(=O)[C@H](O)[C@@H](NC(=O)OC(C)(C)C)c4ccccc4)C[C@@](O)([C@@H](OC(=O)c4ccccc4)[C@H]21)C3(C)C [Docetaxel, docetaxel] | 0.29 ± 0.12 | 0.79 ± 0.15 | 0.59 ± 0.26 | 0.53 ± 0.11 | 
4 | C=CCNC1=C2C[C@@H](C)C[C@H](OC)[C@H](O)[C@@H](C)/C=C(\C)[C@H](OC(N)=O)[C@@H](OC)/C=C\C=C(/C)C(=O)NC(=CC1=O)C2=O [17-AAG, 17-allylamino-17-desmethoxygeldanamycin] |  |  |  |  | hepatotoxicity [3]: reduced hepatotoxicity; MTD (maximum tolerated dose) ([4]; daily×5 schedule): about 40 mg/m^2; MTD (maximum tolerated dose) ([4]; once-weekly regimen): about 308 mg/m^2; MTD (maximum tolerated dose) ([4]; twice-weekly regimen): about 220 mg/m^2; sensitization of cells to cytotoxic effects of other drugs (breast cancer cells; cells in culture, Münster et al. 2001): sensitizes cells in culture to the cytotoxic effects of Paclitaxel and doxorubicin
5 | CC[C@]1(O)C[C@@H]2CN(CCc3c([nH]c4ccccc34)[C@@](C(=O)OC)(c3cc4c(cc3OC)N(C)[C@H]3[C@@](O)(C(=O)OC)[C@H](OC(C)=O)[C@]5(CC)C=CCN6CC[C@]43[C@@H]65)C2)C1 [Vinblastine, vinblastine] | 0.38 ± 0.11 | 0.92 ± 0.3 | 0.68 ± 0.41 | 0.39 ± 0.03 | 
6 | CC[C@]1(O)C[C@H]2CN(CCc3c([nH]c4ccccc34)[C@@](C(=O)OC)(c3cc4c(cc3OC)N(C=O)[C@H]3[C@@](O)(C(=O)OC)[C@H](OC(C)=O)[C@]5(CC)C=CCN6CC[C@]43[C@@H]65)C2)C1 [Vincristine, vincristine] | 0.42 ± 0.08 | 0.96 ± 0.3 | 0.99 ± 0.73 | 0.67 ± 0.37 | 
7 | COC1=C2C[C@@H](C)C[C@H](OC)[C@H](O)[C@@H](C)/C=C(\C)[C@H](OC(N)=O)[C@@H](OC)/C=C\C=C(/C)C(=O)NC(=CC1=O)C2=O [geldanamycin, Geldanamycin] |  |  |  |  | combination effect on growth, co-administration with CI-1033 [5]: additive effect; hepatotoxicity [3]: unacceptable hepatotoxicity
8 | C=CC(=O)Nc1cc2c(Nc3ccc(F)c(Cl)c3)ncnc2cc1OCCCN1CCOCC1 [CI-1033] |  |  |  |  | combination effect on growth, with anti-ErB2 antibody Herceptin [5]: antagonistic effect
9 | CC[C@]1(O)C[C@@H]2CN(CCc3c([nH]c4ccccc34)[C@@](C(=O)OC)(c3cc4c(cc3OC)N(C)[C@H]3[C@@](O)(C(N)=O)[C@H](O)[C@]5(CC)C=CCN6CC[C@]43[C@@H]65)C2)C1 [Vindesine, vindesine] | 0.68 ± 0.08 | 0.91 ± 0.41 |  |  | 
